# From patent US7229785B2, “Fluorescence technique for on-line monitoring of state of hydrogen-producing microorganisms” (priority 2002, dated 2007)
# How the values were obtained:
# [1] = system: sulfur-depleted C. reinhardtii cells; assay: Effect of DCMU on the rate of H2 photoproduction by sulfur-depleted algal cultures; type: cell-based, Chlamydomonas reinhardtii; conditions: 10 μM DCMU added to culture after H2 gas production has started
# Description: […]. DCMU was added to treated cells at the arrow. Time zero in this case represents the time after H2 photoproduction starts.
# Chlamydomonas reinhardtii strain Dangeard C137+ was grown in Tris-acetate-phosphate (TAP) medium (pH, 7.0) under continuous cool-white fluorescent light. Late-log cells were pelleted three times by centrifiguation and re-suspended in the same medium, from which inorganic sulfure (TAP-S) was omitted. The cells were incubated under continuous fluorescent illumation (200-250 μE m^−2 s^−1 PAR) in cylindrical reactor vessels (600 ml) with a rotating glass rod and Teflon impellers for mixing. A magnetic bar was attached at the bottom of the rod to couple it to an external stirring motor, and the rate of mixing was 60-80 rpm. The vessels were sealed using a silicon stopper with an outlet tube inserted through it for gas collection. The gas produced by the cells was collected in an inverted graduated glass cylinder by water displacement.
# The direct involvement of PSII-catalyzed water oxidation activity by sulfur-deprived cells was further investigated using PAM fluorescence techniques.
# [2] = system: C. reinhardtii cells; assay: Inhibitor (KCN, SHAM) effect on rates of dark respiration during sulfur deprivation, Clark electrode; type: cell-based, Chlamydomonas reinhardtii; conditions: SHAM 4 mM, 5 min, 17% O2
# Description: To determine the precise moment of H2-photoproduction onset, we measured the percentage of H2 contained in the gas phase (˜7 ml) on the top of the vessel immediately after anaerobiosis by gas chromatography. The dissolved O2 and redox potential of the medium were also measured. Chlorophyll concentrations were then obtained spectrophotometrically in 95% ethanol cell extracts. The capacity for respiratory O2 consumption was measured with a Clark electrode at 25° C. under aerobic conditions (17% or 170 μM O2) after removing the samples from the culture vessel and equilibrating them with air for 5 minutes.
# The PQ pool is further oxidized by dissolved O2 through the action of PQ-oxidase. In the mitochondria, NADH and FADH2 generated by the Krebs Cycle serve as the source of electrons for a membrane-bound electron transport chain with O2 as the final electron acceptor. The cytochrome oxidase transduces the production of 3 ATP molecules per pair of electrons transported. […]. In both cases, O2 is the terminal electron acceptor. The mitochondrial cytochrome oxidase in C reinhardtii is inhibited by KCN, carbon monoxide, and sodium azide, while the alternative oxidase is specifically affected by salicylic hydroxamic acid (SHAM). The putative chloroplast PQ oxidase, on the other hand, is not inhibited by SHAM and only slightly affected by KCN. By measuring the influence of two inhibitors, KCN and SHAM, on the rates of dark respiration, we tried to estimate the relative contributions of each of the three oxidases at different times after sulfur deprivation. The actual contributions of the three oxidases to the scavenging O2 in situ depend on many factors such as their relative KM's for O2 and the rate of diffusion of O2 from the chloroplast to the mitochondria. Thus, the inhibitor studies that follow may not directly reflect the actual situation in the photobioreactor, but they do indicate that changes in the relative contribution of the three oxidases occur over the course of sulfure deprivation.
# Contributions to the mitochondrial cytochrome oxidase [CO], mitochondrial alternative oxidase [AO], and chlororespiration [CR] to the total respiration rate of C. reinhardtii cells are also shown during sulfur-deprivation. […].
Molecule,decrease of the rate of H2 gas production [1],% SHAM inhibition (% AO) of respiration ([2]; During H2 production),% SHAM inhibition (% AO) of respiration ([2]; End of H2 production),% SHAM inhibition (% AO) of respiration ([2]; Start of H2 production phase),% SHAM inhibition (% AO) of respiration ([2]; Start of anaerobic phase),% SHAM inhibition (% AO) of respiration ([2]; Start of sulfur depletion)
DCMU,80%,,,,,
"O=C(NO)c1ccccc1O [SHAM, salicylic hydroxamic acid]",,38%,100%,13%,0%,25%
